Assays:
oxytocin receptors = target: T1, oxytocin receptors (Rattus norvegicus, UniProt P70536); test: Oxytocin Receptor Binding; set-up: species or system rat (female Sprague-Dawley); details: for IC50: 1.0 nM [3H]OT
T1 construct: The uteri are dissected out, cleaned of fat and connective tissues; from tissue; host or cells: uteri of DES-treated female Sprague-Dawley rats
T1 sequence (P70536 1-388): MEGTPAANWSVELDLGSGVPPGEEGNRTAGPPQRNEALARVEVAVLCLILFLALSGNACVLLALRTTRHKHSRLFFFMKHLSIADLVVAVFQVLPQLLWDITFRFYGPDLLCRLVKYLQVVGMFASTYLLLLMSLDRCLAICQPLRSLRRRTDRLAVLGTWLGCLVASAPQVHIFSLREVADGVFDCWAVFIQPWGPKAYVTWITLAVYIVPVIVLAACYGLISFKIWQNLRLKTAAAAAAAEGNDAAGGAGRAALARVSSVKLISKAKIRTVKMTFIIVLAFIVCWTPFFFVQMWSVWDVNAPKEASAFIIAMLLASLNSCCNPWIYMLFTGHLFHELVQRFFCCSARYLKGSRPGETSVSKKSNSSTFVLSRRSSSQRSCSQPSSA
Procedure: Oxytocin Receptor Binding
Female Sprague-Dawley rats weighing approximately 200-250 g are injected intramuscularly (i.m.) with 0.3 mg/kg of body weight of diethylstilbestrol (DES). The rats are sacrificed 18 hours later under pentobarbital anesthesia. The uteri are dissected out, cleaned of fat and connective tissues and rinsed in 50 ml of normal saline. The tissue pooled from six rats is homogenized in 50 ml of […] Tris.HCl, containing 0.5 mM dithiothreitol and 1.0 mM EDTA, adjusted to pH 7.4, using a polytron at setting 6 with three passes of 10 sec each. The homogenate is passed through two (2) layers of cheesecloth and the filtrate centrifuged at 1000× g for 10 min. The clear supernatant is removed and recentrifuged at 165,000× g for 30 min. The resulting pellet containing the oxytocin receptors is resuspended in 50.0 mM Tris.HCl containing 5.0 mM MgCl2 at pH 7.4, to give a protein concentration of 2.5 mg/ml of tissue suspension. This preparation is used in subsequent binding assays with [^3 H]Oxytocin.
Binding of 3,5-[^3 H]Oxytocin ([^3 H]OT) to its receptors is done in microtiter plates using [^3 H]OT, at various concentrations, in an assay buffer of 50.0 mM Tris.HCl, pH 7.4 and containing 5.0 mM MgCl2, and a mixture of protease inhibitors: BSA, 0.1 mg; aprotinin, 1.0 mg; 1,10-phenanthroline, 2.0 mg; […], 10.0 mg; and PMSF, 0.3 mg per 100 ml of buffer solution. Non-specific binding is determined in the presence of 1.0 uM unlabeled OT. The binding reaction is terminated after 60 min., at 22° C., by rapid filtration through glass fiber filters using a Brandel, cell harvester (Biomedical Research and Development Laboratories,Inc., Gaithersburg, Md.). Competition experiments are conducted at equilibrium using 1.0 nM [^3 H]OT and varying the concentration of the displacing agents. The concentrations of agent displacing 50% of [^3 H]OT at its sites (IC50) are calculated by a computer assisted LUNDON-2 program (LUNDON SOFTWARE INC., Ohio, USA).

[1] = target: T2, Vasopressin V1 receptor subtype in Human Platelet Membranes (Homo sapiens, UniProt P37288); test: Binding to Vasopressin V1 receptor subtype in Human Platelet Membranes
T2 construct: tissue Hudson Valley Blood Services, Westchester Medical Center, Valhalla, N.Y; host or cells: human platelets (frozen platelet rich plasma)
T2 sequence (P37288 whole entry): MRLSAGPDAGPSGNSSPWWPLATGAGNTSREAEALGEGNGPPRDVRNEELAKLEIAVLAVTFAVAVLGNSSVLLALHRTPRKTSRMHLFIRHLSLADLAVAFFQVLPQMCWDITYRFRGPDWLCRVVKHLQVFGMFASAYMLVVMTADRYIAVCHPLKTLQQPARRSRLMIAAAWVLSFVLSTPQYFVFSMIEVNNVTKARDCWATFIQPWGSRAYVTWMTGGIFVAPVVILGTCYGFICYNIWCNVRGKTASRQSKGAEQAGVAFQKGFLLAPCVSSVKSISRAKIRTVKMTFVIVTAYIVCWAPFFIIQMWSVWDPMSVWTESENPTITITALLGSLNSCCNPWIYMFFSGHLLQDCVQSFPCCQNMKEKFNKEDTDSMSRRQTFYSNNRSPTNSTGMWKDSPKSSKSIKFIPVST
Procedure: Radioligand Binding Experiments with Human Platelet Membranes
(a) Platelet Membrane Preparation
Frozen platelet rich plasma (PRP), (Platelet Source: Hudson Valley Blood Services, Westchester Medical Center, Valhalla, N.Y.) are thawed to room temperature. The tubes containing the PRP are centrifuged at 16,000×g for 10 min. at 4° C. and the supernatant fluid discarded. The platelets resuspended in an equal volume of 50.0 mM Tris.HCl, pH 7.5 containing 120 mM NaCl and 20.0 mM EDTA. The suspension is recentrifuged at 16,000× g for 10 min. This washing step is repeated one more time. The wash discarded and the lysed pellets homogenized in low ionic strength buffer of Tris.HCl, 5.0 mM, pH 7.5 containing 5.0 mM EDTA. The homogenate is centrifuged at 39,000× g for 10 min. The resulting pellet is resuspended in Tris.HCl buffer, 70.0 mM, pH 7.5 and recentrifuged at 39,000× g for 10 min. The final pellet is resuspended in 50.0 mM Tris.HCl buffer pH 7.4 containing 120 mM NaCl and 5.0 mM KCl to give 1.0-2.0 mg protein per ml of suspension.
(b) Binding to Vasopressin V1 receptor subtype in Human Platelet Membranes
In wells of a 96 well format microtiter plate, add 100 μl of 50.0 mM Tris.HCl buffer containing 0.2% BSA and a mixture of protease inhibitors (aprotinin, leupeptin etc.). Then add 20 μl of [^3 H]Ligand (Manning or Arg^8 Vasopressin), to give final concentrations ranging from 0.01 to 10.0 nM. Initiate the binding by adding 80.0 μl of platelet suspension (approx. 100 μg protein). Mix all reagents by pipetting the mixture up and down a few times. Non specific binding is measured in the presence of 1.0 µM of unlabeled ligand (Manning or Arg^8 Vasopressin). Let the mixture stand undisturbed at room temperature for ninety (90) min. Upon this time, rapidly filter off the incubate under vacuum suction over GF/B filters, using a Brandel Harvester. Determine the radioactivity caught on the filter disks by the addition of liquid scintillant and counting in a liquid scintillator.

Vasopressin V1 = Vasopressin V1 Antagonist Activity in Conscious Rats (vasopressin vasopressor response); assay type: in vivo, rat; details: 10 mg/kg iv; for Max % Inhibition: vasopressin vasopressor response
Procedure: Vasopressin V1 Antagonist Activity in Conscious Rats Conscious rats are restrained in a supine position with elastic tape. The area at the base of the tail is locally anesthetized by subcutaneous in filtration with 2% procaine (0.2 ml). Using aseptic technique the ventral caudal tail artery is isolated and a cannula made of PE 10 and 20 (heat-fused) tubing is passed into the lower abdominal aorta. The cannula is secured, heparinized (1000 i.u./cc), sealed and the wound closed with one or two stitches of Dexon 4-0. The caudal vein is also cannulated in the same manner for intravenous drug administration. The duration of the surgery is approximately 5 minutes. Additional local anesthesia (2% procaine or lidocaine) is provided as needed. The animals are placed in plastic restraining cages in an upright position. The cannula is attached to a Statham P23Db pressure transducer and pulsatile blood pressure is recorded. […] Percentage of antagonism by the compound is calculated using the pre-drug vasopressin vasopressor response as 100%. The results of this test on representative compounds of this invention in which the dose, the maximum % inhibition and the time in minutes, are shown in Table III.

Row | SMILES | inhibition at 10 µM (oxytocin receptors) [%] | IC50 (oxytocin receptors) [nM] | IC50 [1] [nM] | Time (of maximum % inhibition) (Vasopressin V1) [min] | Max % Inhibition (Vasopressin V1) [%]
1 | O=C(c1ccc(-c2ccccc2C(F)(F)F)cc1)N1Cc2cccn2Cc2ccccc21 [Example 8] | 95 | 1270 | – | – | –
2 | O=C(c1ccc(-c2cc(F)cc(F)c2)cc1)N1Cc2cccn2Cc2ccccc21 [Example 3, 10,11-Dihydro-10-[4-(3,5-difluorophenyl)benzoyl]-5H-pyrrolo[2,1-c][1,4]benzodiazepine] | 89 | 2600 | 85 | 30 | 92
3 | O=C(c1ccc(-c2ccccc2)cc1)N1Cc2ccnn2Cc2ccccc21 [Example 7, 5-([1,1'-Biphenyl]-4-ylcarbonyl)-5,10-dihydro-4H-pyrazolo[5,1-c][1,4]benzodiazepine] | 100 | 230 | 14 | 30 | 90
4 | O=C(c1ccc(-c2ccccn2)cc1)N1Cc2cccn2Cc2ccccc21 [Example 9, 10,11-Dihydro-10-[4-(2-pyridinyl)benzoyl]-5H-pyrrolo[2,1-c][1,4]benzodiazepine] | 100 | 130 | – | 30 | 70
5 | O=C(c1ccc(-c2ccccc2)cc1)N1Cc2cccn2Cc2ccccc21 [Example 19, 10-([1,1'-Biphenyl]-4-ylcarbonyl)-10,11-dihydro-5H-pyrrolo[2,1-c][1,4]benzodiazepine] | 81 | 43 | 2.9 | 30 | 60

Reference: patent US5521173A, “Tricyclic benzazepine vasopressin antagonists” (American Home Products Corporation, priority 1995, dated 1996)
